Reference: ChEMBL document CHEMBL1138190, “Synthesis and antibacterial activity of novel C12 vinyl ketolides” (J Med Chem, 2006)
In brackets after ≈: the same amount, converted by molar mass.

What was measured:
Format in all cases: functional
Haemophilus influenzae [1] = assay: Antibacterial activity against Haemophilus influenzae 2762
Staphylococcus aureus [2] = assay: Antibacterial activity against Staphylococcus aureus 29213
Staphylococcus aureus [3] = assay: Antibacterial activity against Staphylococcus aureus 33591
[4] = tested on: Staphylococcus epidermidis; assay: Antibacterial activity against Staphylococcus epidermidis 14990
[5] = tested on: Staphylococcus epidermidis; assay: Antibacterial activity against Staphylococcus epidermidis f50654
Enterococcus faecalis [6] = assay: Antibacterial activity against Enterococcus faecalis 29212
Enterococcus faecalis [7] = assay: Antibacterial activity against Enterococcus faecalis bc11148-2
Streptococcus pyogenes = assay: Antibacterial activity against Streptococcus pyogenes 8668
Streptococcus pneumoniae [8] = assay: Antibacterial activity against Streptococcus pneumoniae 49619
Streptococcus pneumoniae [9] = assay: Antibacterial activity against Streptococcus pneumoniae 297-749
Streptococcus pneumoniae [10] = assay: Antibacterial activity against Streptococcus pneumoniae 280-962
Streptococcus pneumoniae [11] = assay: Antibacterial activity against Streptococcus pneumoniae Erm 6849
Streptococcus pneumoniae [12] = assay: Antibacterial activity against Streptococcus pneumoniae Mef 5654
Streptococcus pneumoniae [13] = assay: Antibacterial activity against Streptococcus pneumoniae Mef S 3427
Haemophilus influenzae [14] = assay: Antibacterial activity against Haemophilus influenzae 49247

| SMILES | MIC (Haemophilus influenzae [1]) | MIC (Staphylococcus aureus [2]) | MIC (Staphylococcus aureus [3]) | MIC [4] | MIC [5] | MIC (Enterococcus faecalis [6]) | MIC (Enterococcus faecalis [7]) | MIC (Streptococcus pyogenes) | MIC (Streptococcus pneumoniae [8]) | MIC (Streptococcus pneumoniae [9]) | MIC (Streptococcus pneumoniae [10]) | MIC (Streptococcus pneumoniae [11]) | MIC (Streptococcus pneumoniae [12]) | MIC (Streptococcus pneumoniae [13]) | MIC (Haemophilus influenzae [14]) |
| --- | --- | --- | --- | --- | --- | --- | --- | --- | --- | --- | --- | --- | --- | --- | --- |
| C=C[C@]12OC(=O)N(CCCCn3cnc(-c4ccc(O)nc4)c3)[C@@H]1[C@@H](C)C(=O)[C@H](C)C[C@@](C)(OC)[C@H](O[C@@H]1O[C@H](C)C[C@H](N(C)C)[C@H]1O)[C@@H](C)C(=O)[C@@H](C)C(=O)O[C@@H]2CC | 1.56 µg/mL (≈ 1.86 µM) | 0.4 µg/mL (≈ 0.476 µM) | > 50 µg/mL | 0.2 µg/mL (≈ 0.238 µM) | 0.2 µg/mL (≈ 0.238 µM) | 0.2 µg/mL (≈ 0.238 µM) | 3.13 µg/mL (≈ 3.73 µM) | ≤ 0.05 µg/mL | ≤ 0.05 µg/mL | ≤ 0.05 µg/mL | ≤ 0.05 µg/mL | 12.5 µg/mL (≈ 14.9 µM) | 3.13 µg/mL (≈ 3.73 µM) | 1.56 µg/mL (≈ 1.86 µM) | 6.25 µg/mL (≈ 7.44 µM) |
| C=C[C@]12OC(=O)N(CCCCn3cnc(-c4ccc(OC)nc4)c3C)[C@@H]1[C@@H](C)C(=O)[C@H](C)C[C@@](C)(OC)[C@H](O[C@@H]1O[C@H](C)C[C@H](N(C)C)[C@H]1O)[C@@H](C)C(=O)[C@@H](C)C(=O)O[C@@H]2CC | 1.56 µg/mL (≈ 1.8 µM) | 0.2 µg/mL (≈ 0.23 µM) | > 50 µg/mL | 0.1 µg/mL (≈ 0.115 µM) | 0.4 µg/mL (≈ 0.461 µM) | 0.2 µg/mL (≈ 0.23 µM) | 1.56 µg/mL (≈ 1.8 µM) | ≤ 0.05 µg/mL | ≤ 0.05 µg/mL | ≤ 0.05 µg/mL | ≤ 0.05 µg/mL | 0.4 µg/mL (≈ 0.461 µM) | 1.56 µg/mL (≈ 1.8 µM) | 0.2 µg/mL (≈ 0.23 µM) | 6.25 µg/mL (≈ 7.2 µM) |
| C=C[C@]12OC(=O)N(CCCCn3cnc(-c4cnc(OC)nc4)c3)[C@@H]1[C@@H](C)C(=O)[C@H](C)C[C@@](C)(OC)[C@H](O[C@@H]1O[C@H](C)C[C@H](N(C)C)[C@H]1O)[C@@H](C)C(=O)[C@@H](C)C(=O)O[C@@H]2CC | 0.78 µg/mL (≈ 0.912 µM) | 0.1 µg/mL (≈ 0.117 µM) | > 50 µg/mL | 0.1 µg/mL (≈ 0.117 µM) | 0.1 µg/mL (≈ 0.117 µM) | ≤ 0.05 µg/mL | 0.4 µg/mL (≈ 0.468 µM) | ≤ 0.05 µg/mL | ≤ 0.05 µg/mL | ≤ 0.05 µg/mL | ≤ 0.05 µg/mL | 0.4 µg/mL (≈ 0.468 µM) | 0.78 µg/mL (≈ 0.912 µM) | 0.2 µg/mL (≈ 0.234 µM) | 6.25 µg/mL (≈ 7.31 µM) |
| C=C[C@]12OC(=O)N(CCN(C)Cc3cnc(-c4cccnc4)s3)[C@@H]1[C@@H](C)C(=O)[C@H](C)C[C@@](C)(OC)[C@H](O[C@@H]1O[C@H](C)C[C@H](N(C)C)[C@H]1O)[C@@H](C)C(=O)[C@@H](C)C(=O)O[C@@H]2CC | 3.13 µg/mL (≈ 3.66 µM) | 0.1 µg/mL (≈ 0.117 µM) | > 50 µg/mL | 0.1 µg/mL (≈ 0.117 µM) | 0.1 µg/mL (≈ 0.117 µM) | 0.1 µg/mL (≈ 0.117 µM) | 0.4 µg/mL (≈ 0.467 µM) | ≤ 0.05 µg/mL | ≤ 0.05 µg/mL | ≤ 0.05 µg/mL | ≤ 0.05 µg/mL | 0.78 µg/mL (≈ 0.911 µM) | 0.4 µg/mL (≈ 0.467 µM) | 0.1 µg/mL (≈ 0.117 µM) | 12.5 µg/mL (≈ 14.6 µM) |

The remaining compounds from weak to strong by MIC (Haemophilus influenzae [1]), led by results:

| MIC (Haemophilus influenzae [1]) | MIC (Staphylococcus aureus [2]) | MIC (Staphylococcus aureus [3]) | MIC [4] | MIC [5] | MIC (Enterococcus faecalis [6]) | MIC (Enterococcus faecalis [7]) | MIC (Streptococcus pyogenes) | MIC (Streptococcus pneumoniae [8]) | MIC (Streptococcus pneumoniae [9]) | MIC (Streptococcus pneumoniae [10]) | MIC (Streptococcus pneumoniae [11]) | MIC (Streptococcus pneumoniae [12]) | MIC (Streptococcus pneumoniae [13]) | MIC (Haemophilus influenzae [14]) | SMILES |
| --- | --- | --- | --- | --- | --- | --- | --- | --- | --- | --- | --- | --- | --- | --- | --- |
| 3.13 µg/mL (≈ 3.66 µM) | 0.2 µg/mL (≈ 0.234 µM) | > 50 µg/mL | 0.1 µg/mL (≈ 0.117 µM) | 0.2 µg/mL (≈ 0.234 µM) | 0.1 µg/mL (≈ 0.117 µM) | 0.4 µg/mL (≈ 0.468 µM) | ≤ 0.05 µg/mL | ≤ 0.05 µg/mL | ≤ 0.05 µg/mL | ≤ 0.05 µg/mL | 0.2 µg/mL (≈ 0.234 µM) | 0.78 µg/mL (≈ 0.912 µM) | 0.1 µg/mL (≈ 0.117 µM) | 6.25 µg/mL (≈ 7.31 µM) | C=C[C@]12OC(=O)N(CCN(C)Cc3ccc(-c4cccnc4)s3)[C@@H]1[C@@H](C)C(=O)[C@H](C)C[C@@](C)(OC)[C@H](O[C@@H]1O[C@H](C)C[C@H](N(C)C)[C@H]1O)[C@@H](C)C(=O)[C@@H](C)C(=O)O[C@@H]2CC |
| 1.56 µg/mL (≈ 1.96 µM) | 0.1 µg/mL (≈ 0.125 µM) | > 50 µg/mL | 0.1 µg/mL (≈ 0.125 µM) | 0.1 µg/mL (≈ 0.125 µM) | 0.1 µg/mL (≈ 0.125 µM) | 3.13 µg/mL (≈ 3.93 µM) | ≤ 0.05 µg/mL | ≤ 0.05 µg/mL | ≤ 0.05 µg/mL | ≤ 0.05 µg/mL | 6.25 µg/mL (≈ 7.84 µM) | 0.4 µg/mL (≈ 0.502 µM) | 0.1 µg/mL (≈ 0.125 µM) | 6.25 µg/mL (≈ 7.84 µM) | C=C[C@]12OC(=O)N(CCCCn3ccc4ncccc43)[C@@H]1[C@@H](C)C(=O)[C@H](C)C[C@@](C)(OC)[C@H](O[C@@H]1O[C@H](C)C[C@H](N(C)C)[C@H]1O)[C@@H](C)C(=O)[C@@H](C)C(=O)O[C@@H]2CC |
| 0.78 µg/mL (≈ 0.977 µM) | 0.2 µg/mL (≈ 0.251 µM) | > 50 µg/mL | 0.1 µg/mL (≈ 0.125 µM) | 0.4 µg/mL (≈ 0.501 µM) | 0.1 µg/mL (≈ 0.125 µM) | 0.78 µg/mL (≈ 0.977 µM) | ≤ 0.05 µg/mL | ≤ 0.05 µg/mL | ≤ 0.05 µg/mL | ≤ 0.05 µg/mL | 3.13 µg/mL (≈ 3.92 µM) | 1.56 µg/mL (≈ 1.95 µM) | 0.2 µg/mL (≈ 0.251 µM) | 1.56 µg/mL (≈ 1.95 µM) | C=C[C@]12OC(=O)N(CCCCn3cnc4ncccc43)[C@@H]1[C@@H](C)C(=O)[C@H](C)C[C@@](C)(OC)[C@H](O[C@@H]1O[C@H](C)C[C@H](N(C)C)[C@H]1O)[C@@H](C)C(=O)[C@@H](C)C(=O)O[C@@H]2CC |
| 0.78 µg/mL (≈ 0.944 µM) | 0.2 µg/mL (≈ 0.242 µM) | > 50 µg/mL | 0.2 µg/mL (≈ 0.242 µM) | 0.1 µg/mL (≈ 0.121 µM) | 0.1 µg/mL (≈ 0.121 µM) | 0.4 µg/mL (≈ 0.484 µM) | ≤ 0.05 µg/mL | ≤ 0.05 µg/mL | ≤ 0.05 µg/mL | ≤ 0.05 µg/mL | 0.1 µg/mL (≈ 0.121 µM) | 0.78 µg/mL (≈ 0.944 µM) | 0.2 µg/mL (≈ 0.242 µM) | 6.25 µg/mL (≈ 7.57 µM) | C=C[C@]12OC(=O)N(CCCC(C)(C)n3cnc4ncccc43)[C@@H]1[C@@H](C)C(=O)[C@H](C)C[C@@](C)(OC)[C@H](O[C@@H]1O[C@H](C)C[C@H](N(C)C)[C@H]1O)[C@@H](C)C(=O)[C@@H](C)C(=O)O[C@@H]2CC |
